{
  "source": "paper PMC8070648",
  "about": "“Simultaneous Visualization of ^161Tb- and ^177Lu-Labeled Somatostatin Analogues Using Dual-Isotope SPECT Imaging” (Pharmaceutics, 2021)",
  "assay": "Biodistribution in AR42J tumor-bearing nude mice",
  "format": "in vivo",
  "details": "female, CD-1 nude, mouse, iv, 1 nmol/mouse, total radioactivity, i.v. 5 MBq; for tissue uptake at 2 h: 2 h p.i.; for tissue uptake at 24 h: 24 h p.i.",
  "source_text": "Five-week-old female CD-1 nude mice were purchased from Charles River Laboratories (Sulzfeld, Germany).",
  "key": {"[1]": {"details": "AR42J tumor, read-out: AR42J Tumor"}, "[2]": {"details": "femoral muscle, read-out: Muscle"}, "[3]": {"details": "intestines, read-out: Intestines"}},
  "note": "Like-named read-outs stand apart in the source and are kept apart here.",
  "data": [
    {"compound": "C[C@@H](O)[C@@H]1NC(=O)[C@H](CCCCN)NC(=O)[C@@H](Cc2c[nH]c3ccccc23)NC(=O)[C@H](Cc2ccc(O)cc2)NC(=O)[C@@H](NC(=O)[C@@H](Cc2ccccc2)NC(=O)CN2CCN(CC(=O)O)CCN(CC(=O)O)CCN(CC(=O)O)CC2)CSSC[C@@H](C(=O)N[C@H](CO)[C@@H](C)O)NC1=O", "note": "[[^161Tb]Tb-DOTATOC, metal not drawn]", "values": [
      {"measurement": "tissue uptake at 2 h", "setting": "[1]", "value": "8.2 ± 0.2", "unit": "%ID/g"},
      {"measurement": "tissue uptake at 24 h", "setting": "[1]", "value": "3.8 ± 0.6", "unit": "%ID/g"},
      {"measurement": "tissue uptake at 2 h", "setting": "adrenals, read-out: Adrenals", "value": "0.25 ± 0.06", "unit": "%ID/g"},
      {"measurement": "tissue uptake at 24 h", "setting": "adrenals, read-out: Adrenals", "value": "0.23 ± 0.2", "unit": "%ID/g"},
      {"measurement": "tissue uptake at 2 h", "setting": "blood, read-out: Blood", "value": "≤ 0.1", "unit": "%ID/g"},
      {"measurement": "tissue uptake at 24 h", "setting": "blood, read-out: Blood", "value": "≤ 0.1", "unit": "%ID/g"},
      {"measurement": "tissue uptake at 2 h", "setting": "[2]", "value": "≤ 0.1", "unit": "%ID/g"},
      {"measurement": "tissue uptake at 24 h", "setting": "[2]", "value": "≤ 0.1", "unit": "%ID/g"},
      {"measurement": "tissue uptake at 2 h", "setting": "femur, read-out: Femur", "value": "≤ 0.1", "unit": "%ID/g"},
      {"measurement": "tissue uptake at 24 h", "setting": "femur, read-out: Femur", "value": "≤ 0.1", "unit": "%ID/g"},
      {"measurement": "tissue uptake at 2 h", "setting": "heart, read-out: Heart", "value": "≤ 0.1", "unit": "%ID/g"},
      {"measurement": "tissue uptake at 24 h", "setting": "heart, read-out: Heart", "value": "≤ 0.1", "unit": "%ID/g"},
      {"measurement": "tissue uptake at 2 h", "setting": "[3]", "value": "0.21 ± 0.13", "unit": "%ID/g"},
      {"measurement": "tissue uptake at 24 h", "setting": "[3]", "value": "≤ 0.1", "unit": "%ID/g"},
      {"measurement": "tissue uptake at 2 h", "setting": "kidneys, read-out: Kidneys", "value": "9.9 ± 1.4", "unit": "%ID/g"},
      {"measurement": "tissue uptake at 24 h", "setting": "kidneys, read-out: Kidneys", "value": "5.2 ± 0.6", "unit": "%ID/g"},
      {"measurement": "tissue uptake at 2 h", "setting": "liver, read-out: Liver", "value": "0.17 ± 0.01", "unit": "%ID/g"},
      {"measurement": "tissue uptake at 24 h", "setting": "liver, read-out: Liver", "value": "≤ 0.1", "unit": "%ID/g"},
      {"measurement": "tissue uptake at 2 h", "setting": "lung, read-out: Lung", "value": "0.27 ± 0.03", "unit": "%ID/g"},
      {"measurement": "tissue uptake at 24 h", "setting": "lung, read-out: Lung", "value": "0.11 ± 0.01", "unit": "%ID/g"},
      {"measurement": "tissue uptake at 2 h", "setting": "pancreas, read-out: Pancreas", "value": "0.71 ± 0.07", "unit": "%ID/g"},
      {"measurement": "tissue uptake at 24 h", "setting": "pancreas, read-out: Pancreas", "value": "0.18 ± 0.01", "unit": "%ID/g"},
      {"measurement": "tissue uptake at 2 h", "setting": "spleen, read-out: Spleen", "value": "0.11 ± 0.02", "unit": "%ID/g"},
      {"measurement": "tissue uptake at 24 h", "setting": "spleen, read-out: Spleen", "value": "≤ 0.1", "unit": "%ID/g"},
      {"measurement": "tissue uptake at 2 h", "setting": "stomach, read-out: Stomach", "value": "0.74 ± 0.38", "unit": "%ID/g"},
      {"measurement": "tissue uptake at 24 h", "setting": "stomach, read-out: Stomach", "value": "0.29 ± 0.11", "unit": "%ID/g"}
    ]}
  ]
}
